Source: patent US20040224980A1, “Substituted 1H-quinolin-2-one compounds” (priority 2001, published 2004)

System: phenylquinone-induced writhing reactions
Assay: phenylquinone-induced writhing in mice
Type: in vivo
Conditions: male NMRI mice, 10 mg/kg i.v., phenylquinone i.p. 10 minutes after compound, writhing counted 5-20 minutes after phenylquinone
Method: The investigation into analgesic efficacy was performed by phenylquinone-induced writhing in mice (modified after: I. C. Hendershot, J. Forsaith, J. Pharmacol. Exp. There. 125, 237-240 (1959)). The corresponding literature description is hereby introduced as a reference and is deemed to be part of the disclosure.
Male NMRI mice weighing from 25 to 30 g were used for this purpose. Groups of 10 animals per substance dose received, 10 minutes after intravenous administration of the compounds tested, 0.3 ml/mouse of a 0.02% aqueous solution of phenylquinone (phenylbenzoquinone, Sigma, Deisenhofen; solution prepared with addition of 5% of ethanol and stored in a water bath at 45° C.) administered intraperitoneally. The animals were placed individually in observation cages. A push button counter was used to record the number of pain-induced stretching movements (writhing reactions=straightening of the torso with stretching of the rear extremities) for 5-20 minutes after phenylquinone administration. The control was provided by animals which received only physiological common salt solution.
The compounds were tested at the standard dosage of 10 mg/kg. Inhibition of the writhing reactions by a substance was calculated according to the following formula: [formula]
The in-depth investigation into analgesic efficacy was performed using phenylquinbne-induced writhing in mice, as described above.

Structure (SMILES)	% inhibition of writhing reactions [%]
COc1cccc(C2(O)CCC(NC(=O)Cc3c(O)c4ccc(Cl)cc4[nH]c3=O)CC2CN(C)C)c1 (centres unmarked) [Example 1, 2′-(7-Chloro-4-hydroxy-2-oxo-1,2-dihydroquinolin-3-yl)-N-[3″-(N,N-dimethylaminomethyl)-4″-hydroxy-4″-(m-methoxyphenyl)cyclohexyl]acetamide]	60
COc1cccc(C2(O)CCC(NC(=O)Cc3c(OC)c4ccc(Cl)cc4[nH]c3=O)CC2CN(C)C)c1 (centres unmarked) [Example 2, 2′-(7-Chloro-4-methoxy-2-oxo-1,2-dihydroquinolin-3-yl)-N-[3″-(N,N-dimethylaminomethyl)-4″-hydroxy-4″-(m-methoxyphenyl)cyclohexyl]acetamide]	63
